Measurements: US9969767B2, “Oxolupene derivatives” (priority 2014, dated 2018)

System: recombinant NL4-3 virus (Renilla luciferase in nef, Gag P373S)
Assay: HIV Cell Culture Assay (luciferase reporter virus in MT-2 cells)
Assay type: cell-based
Conditions: NL43
Method: MT-2 cells and 293T cells were obtained from the NIH AIDS Research and Reference Reagent Program. MT-2 cells were propagated in RPMI 1640 media supplemented with 10% heat inactivated fetal bovine serum, […]. The 293T cells were propagated in DMEM media supplemented with 10% heat inactivated fetal bovine serum (FBS), 100 units/mL penicillin G and 100 μg/mL streptomycin. The proviral DNA clone of NL4-3 was obtained from the NIH AIDS Research and Reference Reagent Program. A recombinant NL4-3 virus, in which a section of the nef gene from NL4-3 was replaced with the Renilla luciferase gene, was used as a reference virus. In addition, residue Gag P373 was converted to P373S. Briefly, the recombinant virus was prepared by transfection of the altered proviral clone of NL4-3. Transfections were performed in 293T cells using LipofectAMINE PLUS from Invitrogen (Carlsbad, Calif.), according to manufacturer's instruction. The virus was titered in MT-2 cells using luciferase enzyme activity as a marker. Luciferase was quantitated using the Dual Luciferase kit from Promega (Madison, Wis.), with modifications to the manufacturer's protocol. The diluted Passive Lysis solution was pre-mixed with the re-suspended Luciferase Assay Reagent and the re-suspended Stop & Glo Substrate (2:1:1 ratio). Fifty (50) μL of the mixture was added to each aspirated well on assay plates and luciferase activity was measured immediately on a Wallac TriLux (Perkin-Elmer). Antiviral activities of inhibitors toward the recombinant virus were quantified by measuring luciferase activity in cells infected for 4-5 days with NLRluc recombinants in the presence serial dilutions of the inhibitor.

Row | Structure (SMILES) | EC50 [nM]
1 | CC(C)C1=C2[C@H]3CC[C@@H]4[C@@]5(C)CC=C(C6=CC[C@](CF)(C(=O)O)CC6)C(C)(C)[C@@H]5CC[C@@]4(C)[C@]3(C)CC[C@@]2(N)CC1=O [Example 8, (S)-4-((3aR,5aR,5bR,7aR,11aS,11bR,13aS)-3a-amino-1-isopropyl-5a,5b,8,8,11a-pentamethyl-2-oxo-3,3a,4,5,5a,5b,6,7,7a,8,11,11a,11b,12,13,13a-hexadecahydro-2H-cyclopenta[a]chrysen-9-yl)-1-(fluoromethyl)cyclohex-3-enecarboxylic acid] | < 100
2 | CC(C)C1=C2[C@H]3CC[C@@H]4[C@@]5(C)CC=C(C6=CC[C@](CF)(C(=O)O)CC6)C(C)(C)[C@@H]5CC[C@@]4(C)[C@]3(C)CC[C@@]2(NCCN2CCS(=O)(=O)CC2)CC1=O [Example 9, (S)-4-((3aR,5aR,5bR,7aR,11aS,11bR,13aS)-3a-((2-(1,1-dioxidothiomorpholino)ethyl)amino)-1-isopropyl-5a,5b,8,8,11a-pentamethyl-2-oxo-3,3a,4,5,5a,5b,6,7,7a,8,11,11a,11b,12,13,13a-hexadecahydro-2H-cyclopenta[a]chrysen-9-yl)-1-(fluoromethyl)cyclohex-3-enecarboxylic acid] | < 100
3 | CC(C)C1=C2[C@H]3CC[C@@H]4[C@@]5(C)CC=C(C6=CC[C@](CF)(C(=O)O)CC6)C(C)(C)[C@@H]5CC[C@@]4(C)[C@]3(C)CC[C@@]2(N(CCN2CCS(=O)(=O)CC2)CCN2CCS(=O)(=O)CC2)CC1=O [Example 10, (S)-4-((3aR,5aR,5bR,7aR,11aS,11bR,13aS)-3a-(bis(2-(1,1-dioxidothiomorpholino)ethyl)amino)-1-isopropyl-5a,5b,8,8,11a-pentamethyl-2-oxo-3,3a,4,5,5a,5b,6,7,7a,8,11,11a,11b,12,13,13a-hexadecahydro-2H-cyclopenta[a]chrysen-9-yl)-1-(fluoromethyl)cyclohex-3-enecarboxylic acid] | < 100
4 | CC(C)C1=C2[C@H]3CC[C@@H]4[C@@]5(C)CC=C(C6=CC[C@](CF)(C(=O)O)CC6)C(C)(C)[C@@H]5CC[C@@]4(C)[C@]3(C)CC[C@@]2(NCCN2CCC(S(C)(=O)=O)CC2)CC1=O [Example 11, (S)-1-(fluoromethyl)-4-((3aR,5aR,5bR,7aR,11aS,11bR,13aS)-1-isopropyl-5a,5b,8,8,11a-pentamethyl-3a-((2-(4-(methylsulfonyl)piperidin-1-yl)ethyl)amino)-2-oxo-3,3a,4,5,5a,5b,6,7,7a,8,11,11a,11b,12,13,13a-hexadecahydro-2H-cyclopenta[a]chrysen-9-yl)cyclohex-3-enecarboxylic acid] | < 100
5 | CC(C)C1=C2[C@H]3CC[C@@H]4[C@@]5(C)CC=C(C6=CC[C@](CF)(C(=O)O)CC6)C(C)(C)[C@@H]5CC[C@@]4(C)[C@]3(C)CC[C@@]2(NCC[N+]2(CCN3CCC(S(C)(=O)=O)CC3)CCC(S(C)(=O)=O)CC2)CC1=O (stereo partly drawn) [Example 12, 1-(2-(((3aR,5aR,5bR,7aR,11aS,11bR,13aS)-9-((S)-4-carboxy-4-(fluoromethyl)cyclohex-1-en-1-yl)-1-isopropyl-5a,5b,8,8,11a-pentamethyl-2-oxo-3,3a,4,5,5a,5b,6,7,7a,8,11,11a,11b,12,13,13a-hexadecahydro-2H-cyclopenta[a]chrysen-3a-yl)amino)ethyl)-4-(methylsulfonyl)-1-(2-(4-(methylsulfonyl)piperidin-1-yl)ethyl)piperidin-1-ium] | < 100
6 | CC(C)C1=C2[C@H]3CC[C@@H]4[C@@]5(C)CC=C(C6=CC[C@](CF)(C(=O)O)CC6)C(C)(C)[C@@H]5CC[C@@]4(C)[C@]3(C)CC[C@@]2(CNCCCN2CCS(=O)(=O)CC2)CC1=O [Example 13] | < 100
7 | CC(C)C1=C2[C@H]3CC[C@@H]4[C@@]5(C)CC=C(c6ccc(C(=O)O)cc6)C(C)(C)[C@@H]5CC[C@@]4(C)[C@]3(C)CC[C@@]2(C(O)CNCCN(C)C)CC1=O (stereo partly drawn) [Example 14, 4-((3aR,5aR,5bR,7aR,11aS,11bR,13aS)-3a-(2-((2-(dimethylamino)ethyl)amino)-1-hydroxyethyl)-1-isopropyl-5a,5b,8,8,11a-pentamethyl-2-oxo-3,3a,4,5,5a,5b,6,7,7a,8,11,11a,11b,12,13,13a-hexadecahydro-2H-cyclopenta[a]chrysen-9-yl)benzoic acid] | 5.36
8 | CC(C)C1=C2[C@H]3CC[C@@H]4[C@@]5(C)CC=C(C6=CCC(C(=O)O)CC6)C(C)(C)[C@@H]5CC[C@@]4(C)[C@]3(C)CC[C@@]2(C(O)CN(CCN(C)C)Cc2ccc(Cl)cc2)CC1=O (stereo partly drawn) [Example 15, 4-((3aR,5aR,5bR,7aR,11aS,11bR,13aS)-3a-(2-((4-chlorobenzyl)(2-(dimethylamino)ethyl)amino)-1-hydroxyethyl)-1-isopropyl-5a,5b,8,8,11a-pentamethyl-2-oxo-3,3a,4,5,5a,5b,6,7,7a,8,11,11a,11b,12,13,13a-hexadecahydro-2H-cyclopenta[a]chrysen-9-yl)cyclohex-3-enecarboxylic acid] | < 100
9 | CC(C)C1=C2[C@H]3CC[C@@H]4[C@@]5(C)CC=C(C6=CC[C@](CF)(C(=O)O)CC6)C(C)(C)[C@@H]5CC[C@@]4(C)[C@]3(C)CC[C@@]2(CNCCCN2CCS(=O)(=O)CC2)C=C1c1ccccc1 [Example 16, (S)-4-((3aR,5aR,5bR,7aR,11aS,11bR,13aS)-3a-(((3-(1,1-dioxidothiomorpholino)propyl)amino)methyl)-1-isopropyl-5a,5b,8,8,11a-pentamethyl-2-phenyl-4,5,5a,5b,6,7,7a,8,11,11a,11b,12,13,13a-tetradecahydro-3aH-cyclopenta[a]chrysen-9-yl)-1-(fluoromethyl)cyclohex-3-enecarboxylic acid] | 2.64
10 | CC(C)C1=C2[C@H]3CC[C@@H]4[C@@]5(C)CC=C(C6=CC[C@](CF)(C(=O)O)CC6)C(C)(C)[C@@H]5CC[C@@]4(C)[C@]3(C)CC[C@@]2(NCCN2CCS(=O)(=O)CC2)C=C1c1ccccc1 [Example 17, (S)-4-((3aR,5aR,5bR,7aR,11aS,11bR,13aS)-3a-((2-(1,1-dioxidothiomorpholino)ethyl)amino)-1-isopropyl-5a,5b,8,8,11a-pentamethyl-2-phenyl-4,5,5a,5b,6,7,7a,8,11,11a,11b,12,13,13a-tetradecahydro-3aH-cyclopenta[a]chrysen-9-yl)-1-(fluoromethyl)cyclohex-3-enecarboxylic acid] | 109
